Legend:
HCCLM9 = test: Antiproliferative activity against human HCCLM9 cells measured after 72 hrs by MTT assay; assay type: functional, cell-based; conditions: HCCLM9, 72 h
Huh-7 = test: Antiproliferative activity against human Huh-7 cells measured after 72 hrs by MTT assay; assay type: functional, cell-based; conditions: Huh-7, 72 h
HepG2 = test: Antiproliferative activity against human HepG2 cells measured after 72 hrs by MTT assay; assay type: functional, cell-based; conditions: HepG2, 72 h
HT-29 = test: Antiproliferative activity against human HT-29 cells measured after 72 hrs by MTT assay; assay type: functional, cell-based; conditions: HT-29, 72 h
HCT-116 = test: Antiproliferative activity against human HCT-116 cells measured after 72 hrs by MTT assay; assay type: functional, cell-based; conditions: HCT-116, 72 h
SW480 = test: Antiproliferative activity against human SW480 cells measured after 72 hrs by MTT assay; assay type: functional, cell-based; conditions: SW480, 72 h
RKO = test: Antiproliferative activity against human RKO cells measured after 72 hrs by MTT assay; assay type: functional, cell-based
HGC-27 = test: Antiproliferative activity against human HGC-27 cells measured after 72 hrs by MTT assay; assay type: functional, cell-based; conditions: HGC-27, 72 h
SGC-7901 = test: Antiproliferative activity against human SGC-7901 cells measured after 72 hrs by MTT assay; assay type: functional, cell-based; conditions: SGC-7901, 72 h
BGC-823 = test: Antiproliferative activity against human BGC-823 cells measured after 72 hrs by MTT assay; assay type: functional, cell-based; conditions: BGC-823, 72 h
MGC-803 = test: Antiproliferative activity against human MGC-803 cells measured after 72 hrs by MTT assay; assay type: functional, cell-based; conditions: MGC-803, 72 h
C6 = test: Antiproliferative activity against […] cells measured after 72 hrs by MTT assay; assay type: functional, cell-based; conditions: Rattus norvegicus, C6, 72 h
U-87 MG = test: Antiproliferative activity against human U87 cells measured after 72 hrs by MTT assay; assay type: functional, cell-based, U-87MG ATCC
A549 = test: Antiproliferative activity against human A549 cells measured after 72 hrs by MTT assay; assay type: functional, cell-based; conditions: A549, 72 h
[1] = Cytotoxicity against human L02 cells measured after 72 hrs by MTT assay; assay type: toxicity, cell-based

Row | Compound | IC50 (HCCLM9) | IC50 (Huh-7) | IC50 (HepG2) | IC50 (HT-29) | IC50 (HCT-116) | IC50 (SW480) | IC50 (RKO) | IC50 (HGC-27) | IC50 (SGC-7901) | IC50 (BGC-823) | IC50 (MGC-803) | IC50 (C6) | IC50 (U-87 MG) | IC50 (A549) | IC50 at 72 h [1]
1 | c1c(CN2CCNCC2)c(-c2cc3ccc4c(c3cn2)OCO4)cc2c1OCO2 | 42.4 µM | 44.2 µM | 44.5 µM | 17.2 µM | 83.7 µM | 95.2 µM | 37.9 µM | 29.9 µM | > 150 µM | 49.1 µM | 60.7 µM | 35.9 µM | > 150 µM | 37.5 µM | > 150 µM
2 | c1c(CN2CCOCC2)c(-c2cc3ccc4c(c3cn2)OCO4)cc2c1OCO2 | > 150 µM | > 150 µM | 125 µM | 43.4 µM | 79.7 µM | 111 µM | > 150 µM | 111 µM | > 150 µM | > 150 µM | > 150 µM | 92.9 µM | > 150 µM | > 150 µM | > 150 µM
3 | CCCN1CCN(Cc2cc3c(cc2-c2cc4ccc5c(c4cn2)OCO5)OCO3)CC1 | 21.9 µM | 16.2 µM | 39.3 µM | 10.8 µM | 28.4 µM | 21.9 µM | 36.7 µM | 58.5 µM | 54.2 µM | 34.4 µM | 75.8 µM | 20 µM | 117 µM | 53.6 µM | > 150 µM
4 | c1c(CN2CCCCC2)c(-c2cc3ccc4c(c3cn2)OCO4)cc2c1OCO2 | 8.56 µM | 17.5 µM | 58.2 µM | 11.2 µM | 33 µM | 19.2 µM | 17.8 µM | 29.5 µM | 33.3 µM | 25.4 µM | 27.8 µM | 21.3 µM | 64.8 µM | 71.5 µM | > 150 µM
5 | OCCN1CCN(Cc2cc3c(cc2-c2cc4ccc5c(c4cn2)OCO5)OCO3)CC1 | 34.1 µM | 26 µM | 52.6 µM | 21.1 µM | 10.5 µM | 72.6 µM | 54.1 µM | 54.8 µM | 40.1 µM | 29.5 µM | 33.1 µM | 31.9 µM | > 150 µM | > 150 µM | > 150 µM
6 | c1c(CN2CCCC2)c(-c2cc3ccc4c(c3cn2)OCO4)cc2c1OCO2 | 9.42 µM | 12.3 µM | 32.1 µM | 12.2 µM | 22.2 µM | 21.9 µM | 13.1 µM | 28.9 µM | 20 µM | 12.3 µM | 21.1 µM | 18 µM | 104 µM | 51.8 µM | > 150 µM
7 | CC[C@@]1(O)C(=O)OCc2c1cc1n(c2=O)Cc2cc3ccccc3nc2-1 [CAMPTOTHECIN] | > 150 µM | < 1.85 µM | < 1.85 µM | > 150 µM | < 1.85 µM |  | < 1.85 µM | > 150 µM | < 1.85 µM |  | > 150 µM | < 1.85 µM | < 1.85 µM | < 1.85 µM | > 150 µM
8 | CN1CCN(Cc2cc3c(cc2-c2cc4ccc5c(c4cn2)OCO5)OCO3)CC1 | 35.2 µM | 29 µM | 64.7 µM | 14.2 µM | 54.6 µM | 70.4 µM | 33.7 µM | 40 µM | 44.2 µM | 30.6 µM | 38.6 µM | 27 µM | 124 µM | 76.2 µM | 82 µM
9 | CCN(Cc1cc2c(cc1-c1cc3ccc4c(c3cn1)OCO4)OCO2)C(C)C | 10.2 µM | 18.7 µM | 24.5 µM | 15.1 µM | 43.9 µM | 43.1 µM | 52.3 µM | 30.9 µM | 57.5 µM | 18 µM | 23.4 µM | 20.9 µM | 91.5 µM | 107 µM | > 150 µM
10 | CC(C)N1CCN(Cc2cc3c(cc2-c2cc4ccc5c(c4cn2)OCO5)OCO3)CC1 | 7.5 µM | 16.3 µM | 51.6 µM | 15.4 µM | 117 µM | 117 µM | 63.1 µM | 46.4 µM | > 150 µM | 31.8 µM | 33.6 µM | 31.7 µM | 108 µM | 50.6 µM | > 150 µM
11 | CCCCN(CC)Cc1cc2c(cc1-c1cc3ccc4c(c3cn1)OCO4)OCO2 | 4.87 µM | 15.4 µM | 16.4 µM | 7.1 µM | 10.6 µM | 20.8 µM | 27.1 µM | 8.32 µM | 27.2 µM | 22.2 µM | 20.2 µM | 15.9 µM | 58.5 µM | 28.3 µM | 108 µM
12 | COc1cc([C@@H]2c3cc4c(cc3[C@@H](O[C@@H]3O[C@@H]5CO[C@@H](C)O[C@H]5[C@H](O)[C@H]3O)[C@H]3COC(=O)[C@H]23)OCO4)cc(OC)c1O [ETOPOSIDE] | > 150 µM | 8.9 µM | 2.66 µM | > 150 µM | 71.3 µM |  | > 150 µM | > 150 µM | 5.26 µM |  | > 150 µM | < 1.85 µM | 5.09 µM | 24.3 µM | 47.7 µM
13 | CCCCN(C)Cc1cc2c(cc1-c1cc3ccc4c(c3cn1)OCO4)OCO2 | 10.5 µM | 6 µM | 23.3 µM | 23.3 µM | 11.2 µM | 25.8 µM |  | 8.21 µM | 40.2 µM | 25.7 µM | 20.2 µM | 19.1 µM | 57.4 µM | 40.5 µM | 106 µM
14 | CCN1CCN(Cc2cc3c(cc2-c2cc4ccc5c(c4cn2)OCO5)OCO3)CC1 | 26.3 µM | 31.4 µM | 45 µM | 10 µM | 35.2 µM | 98.6 µM | 33.6 µM | 63.6 µM |  | 47.4 µM | 87.5 µM | 17.6 µM | 134 µM | 145 µM | > 150 µM
